Measurements published in ChEMBL document CHEMBL5036339, “Synthesis and biological evaluation of indole-based peptidomimetics as antibacterial agents against Gram-positive bacteria” (Eur J Med Chem, 2021).
≈ marks a conversion by molar mass, not a printed value. Calls of active or inactive are those of the source. The rule behind the calls is not given here.

What was measured:
Escherichia coli = test: Antibacterial activity against Escherichia coli ATCC25922 assessed as reduction in bacterial growth; assay type: functional
Staphylococcus aureus [1] = test: Antibacterial activity against methicillin-resistant Staphylococcus aureus N315 assessed as reduction in bacterial growth; assay type: functional
Staphylococcus aureus [2] = test: Antibacterial activity against methicillin-resistant Staphylococcus aureus NCTC 10442 assessed as reduction in bacterial growth; assay type: functional
[3] = Hemolytic activity in rabbit erythrocytes assessed as concentration required to cause 50% hemolysis; assay type: ADME, cell-based, Oryctolagus cuniculus, Erythrocyte
Staphylococcus aureus [4] = test: Antibacterial activity against Staphylococcus aureus ATCC29213 assessed as reduction in bacterial growth; assay type: functional
Staphylococcus aureus [5] = test: In vivo antibacterial activity against Staphylococcus aureus ATCC29213 in mouse bacterial keratitis model assessed as log reduction in bacterial load in infected cornea at 5%,TOP after 24 hour infection; assay type: functional, organism-based
Staphylococcus aureus [6] = test: Bactericidal activity against Staphylococcus aureus NCTC 10442 assessed as log reduction in bacterial growth at 4X MIC measured within 0.5 hr by time-kill kinetic assay; assay type: functional; conditions: time hrs <=0.5
Staphylococcus aureus [7] = test: Induction of drug resistance in Staphylococcus aureus ATCC29213 assessed as reduction in bacterial growth at 0.5 times MIC measured after 24 hr; assay type: functional, organism-based

| SMILES | MIC (Escherichia coli) | MIC (Staphylococcus aureus [1]) | MIC (Staphylococcus aureus [2]) | HC50 [3] | MIC (Staphylococcus aureus [4]) | Activity (Staphylococcus aureus [5]) | log reduction (Staphylococcus aureus [6]) | Activity (Staphylococcus aureus [7]) |
| --- | --- | --- | --- | --- | --- | --- | --- | --- |
| CC(C)=CCC/C(C)=C/Cn1cc(CC(=O)NCCN(CCN)CCN)c2ccccc21 | 25 µg/mL (≈ 56.9 µM) | 1.56 µg/mL (≈ 3.55 µM) | 1.56 µg/mL (≈ 3.55 µM) | 208 µg/mL | 1.56 µg/mL (≈ 3.55 µM) | – | – | – |
| CN[C@H](CC(C)C)C(=O)N[C@H]1C(=O)N[C@@H](CC(N)=O)C(=O)N[C@H]2C(=O)N[C@H]3C(=O)N[C@H](C(=O)N[C@H](C(=O)O)c4cc(O)cc(O)c4-c4cc3ccc4O)[C@H](O)c3ccc(c(Cl)c3)Oc3cc2cc(c3O[C@@H]2O[C@H](CO)[C@@H](O)[C@H](O)[C@H]2O[C@H]2C[C@](C)(N)[C@H](O)[C@H](C)O2)Oc2ccc(cc2Cl)[C@H]1O [VANCOMYCIN] | – | 1.56 µg/mL (≈ 1.08 µM) | 1.56 µg/mL (≈ 1.08 µM) | – | 0.78 µg/mL (≈ 0.538 µM) | Active | 0.5 log10 CFU/mL | – |
| COC(=O)[C@H](CCCNC(=N)N)NC(=O)Cc1cn(C/C=C(\C)CCC=C(C)C)c2ccccc12 | 12.5 µg/mL (≈ 26 µM) | 3.12 µg/mL (≈ 6.49 µM) | 3.12 µg/mL (≈ 6.49 µM) | 58.8 µg/mL | 3.12 µg/mL (≈ 6.49 µM) | – | – | – |
| C=CCCCCCn1cc(CC(=O)NCCN(CCN)CCN)c2ccccc21 | > 50 µg/mL | 12.5 µg/mL (≈ 31.3 µM) | 25 µg/mL (≈ 62.6 µM) | 140 µg/mL | 12.5 µg/mL (≈ 31.3 µM) | – | – | – |
| COC(=O)[C@H](CCCNC(=N)N)NC(=O)[C@H](CCCNC(=N)N)NC(=O)Cc1cn(C/C=C(\C)CCC=C(C)C)c2ccccc12 | 50 µg/mL (≈ 78.4 µM) | 3.12 µg/mL (≈ 4.9 µM) | 1.56 µg/mL (≈ 2.45 µM) | > 200 µg/mL | 3.12 µg/mL (≈ 4.9 µM) | – | – | – |
| CCCCCCCCCCn1cc(CC(=O)NCCN(CCN)CCN)c2ccccc21 | 12.5 µg/mL (≈ 28.2 µM) | 1.56 µg/mL (≈ 3.52 µM) | 1.56 µg/mL (≈ 3.52 µM) | 95.9 µg/mL | 1.56 µg/mL (≈ 3.52 µM) | – | – | – |
| CC(C)=CCn1cc(CC(=O)NCCCNC(=N)N)c2ccccc21 | > 100 µg/mL | 50 µg/mL (≈ 146 µM) | 50 µg/mL (≈ 146 µM) | > 200 µg/mL | 50 µg/mL (≈ 146 µM) | – | – | – |
| NC[C@H]1O[C@H](O[C@H]2[C@H](O)[C@@H](O[C@H]3O[C@H](CO)[C@@H](O)[C@H](N)[C@H]3O)[C@H](N)C[C@@H]2N)[C@H](O)[C@@H](O)[C@@H]1O [KANAMYCIN] | 6.25 µg/mL (≈ 12.9 µM) | – | – | – | – | – | – | – |
| CC(C)=CCn1cc(CC(=O)N[C@@H](CCCNC(=N)N)C(N)=O)c2ccccc21 | > 100 µg/mL | > 50 µg/mL | > 50 µg/mL | > 200 µg/mL | > 50 µg/mL | – | – | – |
| CCOC(=O)Cc1c[nH]c2ccccc12 | > 100 µg/mL | > 50 µg/mL | > 50 µg/mL | > 200 µg/mL | > 50 µg/mL | – | – | – |
| COC(=O)[C@H](CCCNC(=N)N)NC(=O)[C@H](CCCNC(=N)N)NC(=O)[C@H](CCCNC(=N)N)NC(=O)Cc1cn(C/C=C(\C)CCC=C(C)C)c2ccccc12 | 50 µg/mL (≈ 63 µM) | 1.56 µg/mL (≈ 1.96 µM) | 1.56 µg/mL (≈ 1.96 µM) | > 200 µg/mL | 3.12 µg/mL (≈ 3.94 µM) | – | – | – |
| CCn1cc(C(=O)O)c(=O)c2cc(F)c(N3CCNCC3)cc21 | – | – | – | – | – | – | – | Active |
| CC(C)=CCC/C(C)=C/Cn1cc(CC(=O)NCCCN(C)C)c2ccccc21 | 12.5 µg/mL (≈ 31.6 µM) | 3.12 µg/mL (≈ 7.9 µM) | 6.25 µg/mL (≈ 15.8 µM) | 55.1 µg/mL | 6.25 µg/mL (≈ 15.8 µM) | – | – | – |
| CC(C)=CCC/C(C)=C/Cn1cc(CC(=O)NCCCN2CCCC2)c2ccccc21 | 50 µg/mL (≈ 119 µM) | 6.25 µg/mL (≈ 14.8 µM) | 6.25 µg/mL (≈ 14.8 µM) | 47.6 µg/mL | 6.25 µg/mL (≈ 14.8 µM) | – | – | – |
| CCCCN(CCCC)CCCNC(=O)Cc1cn(C/C=C(\C)CCC=C(C)C)c2ccccc12 | > 100 µg/mL | 3.12 µg/mL (≈ 6.51 µM) | 3.12 µg/mL (≈ 6.51 µM) | 72.3 µg/mL | 3.12 µg/mL (≈ 6.51 µM) | – | – | – |
| CC(C)=CCC/C(C)=C/Cn1cc(CC(=O)N[C@@H](CCCNC(=N)N)C(N)=O)c2ccccc21 | 25 µg/mL (≈ 53.6 µM) | 3.12 µg/mL (≈ 6.7 µM) | 3.12 µg/mL (≈ 6.7 µM) | 119 µg/mL | 3.12 µg/mL (≈ 6.7 µM) | – | – | – |
| CC(C)=CCC/C(C)=C/Cn1cc(CC(=O)NCCCNC(=N)N)c2ccccc21 | 12.5 µg/mL (≈ 30.5 µM) | 1.56 µg/mL (≈ 3.81 µM) | 1.56 µg/mL (≈ 3.81 µM) | 733 µg/mL | 1.56 µg/mL (≈ 3.81 µM) | – | – | – |
| CC(C)=CCC/C(C)=C/Cn1cc(CC(=O)NCCCN)c2ccccc21 | 12.5 µg/mL (≈ 34 µM) | 6.25 µg/mL (≈ 17 µM) | 12.5 µg/mL (≈ 34 µM) | 178 µg/mL | 12.5 µg/mL (≈ 34 µM) | – | – | – |
| CCOC(=O)Cc1cn(C/C=C(\C)CCC=C(C)C)c2ccccc12 | > 100 µg/mL | > 50 µg/mL | > 50 µg/mL | > 200 µg/mL | > 50 µg/mL | – | – | – |
| COC(=O)[C@H](CCCNC(=N)N)NC(=O)Cc1cn(CC=C(C)C)c2ccccc12 | > 100 µg/mL | 50 µg/mL (≈ 121 µM) | 50 µg/mL (≈ 121 µM) | > 200 µg/mL | 50 µg/mL (≈ 121 µM) | – | – | – |
| CC(C)=CCn1cc(CC(=O)NCCCN)c2ccccc21 | > 100 µg/mL | > 50 µg/mL | > 50 µg/mL | > 200 µg/mL | > 50 µg/mL | – | – | – |
| COC(=O)[C@H](Cc1c[nH]cn1)NC(=O)Cc1cn(C/C=C(\C)CCC=C(C)C)c2ccccc12 | > 100 µg/mL | > 50 µg/mL | > 50 µg/mL | > 200 µg/mL | > 50 µg/mL | – | – | – |
| CC(C)=CCC/C(C)=C/Cn1cc(CC(=O)N[C@@H](CCCNC(=N)N)C(=O)N[C@@H](CCCNC(=N)N)C(N)=O)c2ccccc21 | 50 µg/mL (≈ 80.3 µM) | 3.12 µg/mL (≈ 5.02 µM) | 3.12 µg/mL (≈ 5.02 µM) | > 200 µg/mL | 3.12 µg/mL (≈ 5.02 µM) | – | – | – |
